Measurements: a melting point compilation (Tetko et al.; mined from patent text by program, amines drawn as free bases though some values may be those of a salt)

`Cc1cccc(-c2nc(N)sc2-c2ccnc(F)c2)c1` showed a melting point of 214 to 218 °C.
In the case of `COc1ccc(C(Sc2ccccc2N)C(O)C(=O)O)cc1` (stereo not given), the melting point is reported as 167 to 168 °C.
For `CCCc1c(OCCOc2ccccc2C(=O)NCCCCc2cccnc2)ccc(C(C)=O)c1O`, the melting point was 77 to 80 °C.
`COc1ccccc1C(Nc1ccncc1)c1ccccc1` (stereo not given) showed a melting point of 143 to 145 °C.
`COCCNC(=O)c1cccc(-c2ccc3c(c2)N(c2ccc(Cl)cc2Cl)CC3)c1` showed a melting point of 119 to 120 °C.
`COc1cc(Oc2ccc(S(C)(=O)=O)nc2)cc2cc(C3=NCC(CC(=O)N(C)C)S3)[nH]c12` (stereo not given) gave a melting point of 206 to 207 °C.
With `CCOC(=O)c1cc2c(OCc3ccccc3)ccc3c(CC)c(-c4ccc(OCc5ccccc5)cc4)c1n23` the melting point was 114 to 116 °C.
Compound `CCOC(=O)C(=NOC)c1nc(N)cc(Sc2ccccc2)n1` has a melting point of 154 to 156 °C.
For `CN(C)CC(=O)Nc1cccc2c1C(=O)c1c(NC(=O)CN(C)C)cccc1C2=O`, the melting point was 194 to 195 °C.
With `O=C(O[C@@H]1CC[C@H]1Cl)c1ccccc1` (relative stereo) the melting point was 20 °C.
Compound `COc1ccccc1-c1cc(F)cc2c1O[C@@H](CN)CC2` has a melting point of 100 °C.
`FC(F)(F)c1cc(N2CCN(Cc3n[nH]c4ccccc34)CC2)cc(C(F)(F)F)c1` gave a melting point of 155 to 156 °C.
With `O=C(O)/C=C/c1cnoc1-c1ccccc1` the melting point was 197 to 199 °C.
`O=c1[nH]c2ccc(C(F)(F)F)cc2c(-c2cc(Cl)ccc2O)c1NS(=O)(=O)c1ccccc1` gave a melting point of 262 to 265 °C.
In the case of `Cc1ncc(C#N)c(Nc2ccc3[nH]ccc3c2C)c1-c1ccc(OCCCl)cc1`, the melting point is reported as 200 to 201 °C.
In the case of `Cc1cc(C2=NOC(c3cc(Cl)cc(Cl)c3)(C(F)(F)F)C2)ccc1C(=O)NC1CON(CCO)C1=O` (stereo not given), the melting point is reported as 78 °C.
With `CCCc1c(OCCCOc2cccc(N)c2C#N)ccc(C(C)=O)c1O` the melting point was 120 to 122 °C.
For `CCOC(=O)c1c[nH]c2c(-c3ccncc3)c(-c3ccc(F)cc3)nn2c1=O`, the melting point was greater than 250 °C.
In the case of `Fc1ccccc1N1CC2(CCNCC2)c2ccc(Cl)cc21`, the melting point is reported as 174 to 176 °C.
`CC(C)(C)OC(=O)N[C@H]1C[C@@H](CON2C(=O)c3ccccc3C2=O)C1` gave a melting point of 120 to 122 °C.
In the case of `CC(=CCc1c(C)nc(N)nc1N)c1cc(Cl)ccc1Cl`, the melting point is reported as 172 to 174 °C.
For `CCN(c1ccc(Br)cc1)S(=O)(=O)C(F)(F)F`, the melting point was 59 to 60 °C.
For `C[Si](C)(C)c1cc(-c2ccc(F)cc2)c(-c2ccc(F)cc2)o1`, the melting point was 82 to 83 °C.
Work on `CC(C)(C)OC(=O)[C@H](CCC(=O)N1CCC2(CCN(Cc3ccccc3)CC2)CC1)NS(=O)(=O)c1ccccc1` yielded a melting point of 134 to 136 °C.
Compound `C=CCN1C(=O)C(O)(CC(=O)N(C)C)c2cc(CO)ccc21` (stereo not given) has a melting point of 125 °C.
`Cc1cccc(-c2c(C3CCN(C)CC3)[nH]c(=O)c3ccccc23)c1` gave a melting point of 214 to 216 °C.
`CC[C@H](C)[C@H](NC(=O)NCCC1CCCCC1)C(=O)N[C@H](CO)Cc1c[nH]c2ccccc12` gave a melting point of 182 to 184 °C.
For `CCCCCCC1=CC(=C(Br)Br)NC1=O`, the melting point was 103 to 105 °C.
In the case of `O=[N+]([O-])c1ccc(F)c(-c2ccccn2)c1F`, the melting point is reported as 84 to 86 °C.
For `CC(NC(=O)C(CS)C1CCc2ccccc21)C(=O)O` (stereo not given), the melting point was 121 °C.
In the case of `COc1cc2c(cc1O)C(C1(c3ccccc3Br)CCC1)N(C)CC2` (stereo not given), the melting point is reported as 48 to 51 °C.
For `CC1Cc2cccc3c4oc(=O)c(Sc5cccc(F)c5)c(O)c4c(=O)n1c23` (stereo not given), the melting point was 199 to 200 °C.
`COCCCCCCCCCCC(=O)O` showed a melting point of 31 to 32 °C.
`O=CNCS(=O)(=O)c1ccc2ccccc2c1` gave a melting point of 139 to 141 °C.
`COc1ccc(-c2ccc3c(c2)CC[C@H]2N(C)C(=O)CC[C@]32C)cc1OC` showed a melting point of 108 to 112 °C.
`CCOC(=O)C1=C(COCC#CC(N)=O)NC(C)=C(C(=O)OC)C1c1cccc(Cl)c1Cl` (stereo not given) gave a melting point of 147 to 148 °C.
With `CCN1C(=O)CC2(CNC(=O)C2)C1=O` (stereo not given) the melting point was 168 to 169 °C.
For `O[C@H]1CC[C@H](n2cnc(-c3ccc(F)cc3)c2-c2ccnc(Oc3ccccc3)n2)CC1`, the melting point was 212 to 215 °C.
With `CNC(=O)Oc1cccc(C2CCCN2C(=O)c2ccccc2)c1` (stereo not given) the melting point was 117 to 121 °C.
Compound `CCOC(=O)c1ccc2c(S)cccn2c1=O` has a melting point of 111 to 113 °C.
`NS(=O)(=O)c1cccc2cncn12` showed a melting point of 148 to 151 °C.
Compound `c1ccc(C2COc3cccc4c5c(OCCN6CCNCC6)cccc5n2c34)cc1` (stereo not given) has a melting point of 72 °C.
Compound `CC(=O)Oc1ccc2c(c1)CCCO2` has a melting point of 76 to 77 °C.
Work on `Fc1cccc(Nc2nc(Cl)nc(NC3CCCCCC3)n2)c1` yielded a melting point of 148 °C.
`N#Cc1ccc(NC2CCN(Cc3cccc(C(F)(F)F)c3)CC2)nn1` showed a melting point of 170 °C.
`Cc1cc(Cl)ccc1OCC(=O)N1Cc2ccc(C(=O)NCc3cccnc3)n2Cc2ccccc21` showed a melting point of 168 °C.
`O=C(c1ccc(F)cc1)c1cc(F)ccc1OCCCCl` showed a melting point of 60 °C.
Compound `Cc1cc(Oc2ccc3nc(COc4ccc(CC5SC(=O)NC5=O)cc4)n(C)c3c2)cc(C)c1N` (stereo not given) has a melting point of 209 to 211 °C.
`CCc1nc2c(cnn2CC)c(NC2CCOCC2)c1CNC(=O)c1cccc(C(=O)NCc2ccc(C)c(-c3cccc(CN4CCCN(C)CC4)c3)c2)c1` gave a melting point of 107 to 109 °C.
With `O=C1NC(=O)c2c1c(-c1ccccc1Cl)cc1c2ccn1CCN1CCCC1` the melting point was 208 to 209 °C.
With `c1ccc(C(c2ccccc2)(c2ccccc2)N2CCc3sccc3C2)cc1` the melting point was 95 °C.
Work on `CCOC(=O)COc1ccc([N+](=O)[O-])cc1` yielded a melting point of 75 to 76 °C.
With `O=C(CC(CSC(=O)c1ccccc1)C(=O)O)c1ccccc1` (stereo not given) the melting point was 110 to 111 °C.
With `COc1ccccc1-c1ccc(C(=O)N2Cc3ccc(C(=O)NCCc4ccc(O)cc4)n3Cc3ccccc32)cc1C` the melting point was 138 to 147 °C.
Work on `CCn1ccc(C2(c3cccc(-c4cncnc4)c3)N=C(N)N(C)C2=O)c1` (stereo not given) yielded a melting point of 100 to 102 °C.
Work on `CCOc1nn(Cc2ccc(OCc3nc4ccccc4n3C)cc2)cc1CCC(=O)O` yielded a melting point of 177 to 178 °C.
Work on `CCCCCCCN(Cc1ccc(CCC(C)C)cc1)C(=O)Nc1c(OC)ccc2ncccc12` yielded a melting point of 86 to 87 °C.
In the case of `CC1(C)OC(=C(C#N)C#N)C(C#N)=C1c1ccc(N=[N+]=[N-])cc1`, the melting point is reported as 184 °C.
`COC(=O)C(C(=O)OC)C(Cc1c([N+](=O)[O-])cccc1C(F)(F)F)c1ccc(OC)cc1` (stereo not given) showed a melting point of 117 to 119 °C.
In the case of `NC(C(=O)O)c1ccc(CC(=O)O)cc1` (stereo not given), the melting point is reported as 250 °C.
In the case of `O=C1CCC(=O)N1CCCCSc1ccncc1`, the melting point is reported as 80 to 81 °C.
With `Fc1ccc2c(c1)nc(C(F)(F)C(F)(F)F)n2C1CCNCC1` the melting point was 177 to 178 °C.
For `Cn1c(-c2ccc(-c3ccccn3)cc2)cnc1[C@H](Cc1ccccn1)N(C=O)c1cc2cc(Cl)ccc2o1`, the melting point was 175 to 180 °C.
Work on `CCCCOc1cccc(CCNC(=O)C=CC2CCCCC2)c1` yielded a melting point of 67 to 71 °C.
`CC(=Cc1ccc(-n2ccnc2)cc1)[N+](=O)[O-]` showed a melting point of 119 to 120 °C.
With `NNC(=O)CCc1cccc(F)c1` the melting point was 109 to 110 °C.
With `C[C@]1(N2C(=O)c3ccc(CNC(=O)c4ccc(Br)cn4)cc3C2=O)CCC(=O)NC1=O` the melting point was 260 to 262 °C.
Work on `OCCC1(c2ccc(Cl)c(Cl)c2)CCNC1` (stereo not given) yielded a melting point of 91 to 94 °C.
`C=C1C(C(=O)c2ccccc2)CC(O[Si](c2ccccc2)(c2ccccc2)C(C)(C)C)C1COC(c1ccccc1)(c1ccccc1)c1ccccc1` (stereo not given) gave a melting point of 142 to 144 °C.
Compound `CCC1CCC2C3CCC4CC(O)CCC4(C)C3C(N(C)C)CC12C` (stereo not given) has a melting point of 147 to 150 °C.
`O=C(CCCCCCN(Cc1ccccc1)C(=O)c1cn2c3c(cccc13)CCC2)NO` gave a melting point of 71 to 73 °C.
For `CC1(C)SC(c2cc(Br)c(O)c(Br)c2)NC1C(=O)O` (stereo not given), the melting point was 154 to 155 °C.
`CC(CO)Nc1nc(-c2ccc(Br)cc2)cs1` (stereo not given) gave a melting point of 100 to 101 °C.
For `COc1cc(C(=O)N2CCC(CCN3CCC(C(=O)c4nc5ccccc5[nH]4)CC3)(c3ccc(Cl)c(Cl)c3)C2)cc(OC)c1OC` (stereo not given), the melting point was 130 to 140 °C.
For `COc1cc(C)c(-c2c(C)cncc2C)c(C)c1`, the melting point was 87 to 88 °C.
For `CCOC(=O)C(CSC12CC3CC(CC(C3)C1)C2)NC(C)C(=O)O` (stereo not given), the melting point was 68 to 72 °C.
Compound `Cc1ccccc1Cn1c(OCc2ccccc2)noc1=O` has a melting point of 77 to 78 °C.
In the case of `CCN1CC(NC(=O)c2ccc(N)cc2)CN1CC`, the melting point is reported as 119 to 121 °C.
Work on `CC(=O)N1CCC(C(=O)c2ccc(Br)cc2)CC1` yielded a melting point of 120 °C.
In the case of `O=C(O)C1c2ccccc2OCc2ncccc21` (stereo not given), the melting point is reported as 139 to 140 °C.
In the case of `CC(C)(CN)Cc1ccc(CC(C)(C)CN)cc1`, the melting point is reported as 53 to 56 °C.
Work on `CCn1c(N)c(-c2nccn2COCC[Si](C)(C)C)c(=O)c2ccc(Cl)nc21` yielded a melting point of 90 °C.
`CCOC(=O)C1=C(COCc2nc(C(=O)OCC)cs2)NC(C)=C(C(=O)OC)C1c1ccccc1Cl` (stereo not given) showed a melting point of 111 to 113 °C.
`CCOC(=O)/C=C/c1cn(Cc2ccccc2)nc1OCc1ccc(OCc2nc(-c3ccco3)oc2C)c(OC)c1` gave a melting point of 147 to 148 °C.
With `O=C(O)C1=C(SCc2ccccc2)CCC1` the melting point was 233 °C.
For `CC(C)(C)Sc1c(CC(C)(C)C(=O)O)n(Cc2ccc(Cl)cc2)c2ccc(OCc3cc4ccccc4cn3)cc12`, the melting point was 228 °C.
`CCc1nnc2c(Nc3ccc(Cl)cc3OC)nc3ccccc3n12` gave a melting point of 245 to 248 °C.
For `CCc1ccccc1-n1ncc(C#N)c1N`, the melting point was 130 °C.
With `C#CCOCCn1c(CN2CCCN(C)CC2)nc2ccccc21` the melting point was 133 to 136 °C.
For `Cc1cc2c3c(cc(C)c2[nH]c1=O)C(C)C(C)(CN=[N+]=[N-])O3` (stereo not given), the melting point was 189 to 192 °C.
`CN1CCN(NC(=O)c2cc([N+](=O)[O-])cc3c2OCCO3)CC1` showed a melting point of 210 °C.
Work on `O=C(O)[C@H]1CCCN1C(=O)C(F)(F)F` yielded a melting point of 48 to 51 °C.
In the case of `CCC(CC)c1ccc(OC)c2nc(Oc3c(C)cc(Cl)cc3Cl)n(C)c12`, the melting point is reported as 130 to 131 °C.
Work on `COc1cc2sc(-c3ccccn3)nc(=O)c2cc1OC` yielded a melting point of 236 to 238 °C.
In the case of `CCCn1c(=O)n2c(-c3ccccc3)nnc2c2[nH]cnc21`, the melting point is reported as 273 to 280 °C.
`Cc1cc(C#Cc2cn(-c3ncccn3)c(C)n2)ccn1` showed a melting point of 164 to 165 °C.
`CC(=O)C1CCC2C3CCC4CC(O)C(Cl)CC4(C)C3C(=O)CC12C` (stereo not given) showed a melting point of 185 to 189 °C.
Compound `COC(=O)c1ccnc(NC(=O)C(C)CSC(C)=O)c1` (stereo not given) has a melting point of 105 to 106 °C.
With `CCOC(=O)C1CC(=O)NN1c1ncc(Cl)cc1Cl` (stereo not given) the melting point was 105 to 108 °C.
Work on `COC(=O)c1ccc(C(O)C#Cc2ccccc2)cc1` (stereo not given) yielded a melting point of 48 to 50 °C.
